Results on eight compounds are retold here after US20090258873A1, “Novel tetrahydropyridothiophenes” (priority 2005, published 2009).

Molecules are shown by their SMILES. pIC50: −log10 of the molar value.

For assay [1], the system named is RKO (RKOp27) human colon adenocarcinoma cells. As to the kind of experiment: Alamar Blue cell viability assay, anti-proliferative/cytotoxic activity on proliferating RKOp27 cells. It counts as cell-based. The note with it: no Ponasterone A, 72 hours incubation, read-out: IC50 RKO p27 uninduced (proliferating). How it is done:
The anti-proliferative I cytotoxic activity of the compounds described herein, can be tested on subclones of RKO (RKOp27) human colon adenocarcinoma cells (Schmidt et al., Oncogene 19, 2423-2429; 2000) using the Alamar Blue cell viability assay (described in O'Brien et al. Eur J Biochem 267, 5421-5426, 2000). The compounds are dissolved as 20 mM solutions in dimethylsulfoxide (DMSO) and subsequently diluted in semi-logarithmic steps. DMSO dilutions are further diluted 1:100 into Dulbecco's modified Eagle's medium (DMEM) containing 10% fetal calf serum to a final concentration twice as much as the final concentration in the test. RKO subclones are seeded into 96 well flat bottom plates at a density of 5000 cells per well in a volume of 50 μl per well. 24 hours after seeding the 50 μl each of the compound dilutions in DMEM medium are added into each well of the 96 Well plate. Each compound dilution is tested as quadruplicates. Wells containing untreated control cells are filled with 50 μl DMEM medium containing 1% DMSO. The cells are then incubated with the substances for 72 hours at 37° C. in a hunified atmosphere containing 5% carbon dioxide. To determine the viability of the cells, 10 μl of an Alamar Blue solution (Biosource) are added and the fluorescence is measured at an extinction of 544 nm and an emission of 590 nm. For the calculation of the cell viability the emission value from untreated cells is set as 100% viability and the emission rates of treated cells are set in relation to the values of untreated cells. Viabilities are expressed as % values.
The corresponding IC50 values of the compounds for anti-proliferative/cytotoxic activity are determined from the concentration-effect curves.
Representative IC50 values for anti-proliferation/cytotoxicity determined in the mentioned assay follow from the following table A, in which the numbers of the compounds correspond to the numbers of the examples.
In general terms: The colour change of resazurin is a common sign of viable cells or microbes.

Assay [2] deals with RKO colon adenocarcinoma cells (RKOp27) arrested by ectopic p27Kip1. The assay is described as follows: Alamar Blue cell viability assay on RKOp27 cells arrested by p27Kip1 expression induced with Ponasterone A (cell cycle specific mode of action). It counts as cell-based. The note with it: Homo sapiens, RKOp27 cells arrested by p27Kip1 induced with 10 μM Ponasterone A, 72 hours incubation, read-out: IC50 RKO p27 induced (arrested). As for the experimental part: To determine the cell cycle specific mode of action, subclones of RKO colon adenocarcinoma cells (RKOp27 or RKOp21 as described by Schmidt et al. in Oncogene 19, 2423-2429; 2000) are seeded into 96 well flat bottom plates at a density of 15000 cells per well in a volume of 50 μl per well in DMEM growth medium with 10% FCS containing 10 μM Ponasterone A. 24 hours after seeding the 50 μl each of the compound dilutions in DMEM medium are added into each well of the 96 Well plate. Each compound dilution is tested as quadruplicates. Wells containing untreated control cells are filled with 50 μl DMEM medium containing 1% DMSO. The cells are then incubated with the substances for 72 hours at 37° C. in a humidified atmosphere containing 5% carbon dioxide. To determine the viability of the cells, 10 μl of an Alamar Blue solution (Biosource) are added and the fluorescence was measured at an extinction of 544 nm and an emission of 590 nm. For the calculation of the cell viability the emission value from untreated cells is set as 100% viability and the emission rates of treated cells are set in relation to the values of untreated cells. Viabilities are expressed as % values. Viability is compared of proliferating cells grown in the absence of the inducer Ponasterone A, versus viability of cells arrested by the expression of ectopic p27Kip1 induced by Ponasterone A.

By pIC50 is commonly meant the IC50 on a negative log10 scale, so that one unit is a factor of ten. Consider `CCCC(=O)N1CCc2c(sc(NC(=O)CCc3ccco3)c2C#N)C1` [Example 14, N-(6-Butyryl-3-cyano-4,5,6,7-tetrahydro-thieno[2,3-c]pyridin-2-yl)-3-furan-2-yl-propionamide], for which the figures for the pIC50 in assay [1] and in assay [2] were at least 6.52 and below 4.00, respectively.
For `N#Cc1c(NC(=O)CCc2ccco2)sc2c1CCN(C(=O)Cc1ccccn1)C2` [Example 10, N-[3-Cyano-6-(2-pyridin-2-yl-ethanoyi)-4,5,6,7-tetrahydro-thieno[2,3-c]pyridin-2-yl]-3-furan-2-yl-propionamide], the pIC50 in assay [1] was at least 6.52; in assay [2], below 4.00.
For the compound `N#Cc1c(NC(=O)CCc2ccco2)sc2c1CCN(C(=O)Cc1cccnc1)C2` [Example 11, N-[3-Cyano-6-(2-pyridin-3-yl-ethanoyl)-4,5,6,7-tetrahydro-thieno[2,3-c]pyridin-2-yl]-3-furan-2-yl-propionamide], the figures for the pIC50 in assay [1] and in assay [2] were at least 6.52 and below 4.00, respectively.
`CC(CC(=O)Nc1sc2c(c1C#N)CCN(C(=O)CCn1ccnc1)C2)c1ccccc1` (racemic) [Example 31]: the results for the pIC50 in assay [1] and in assay [2] were 5.70 to 6.52 and below 4.00, respectively.
With `Cc1nccn1CC(=O)N1CCc2c(sc(NC(=O)CCc3ccccc3)c2C#N)C1` [Example 38, N-{3-Cyano-6-[2-(2-methyl-imidazol-1-yl)-ethanoyl]-4,5,6,7-tetrahydro-thieno[2,3-c]pyridin-2-yl}-3-phenyl-propionamide], the pIC50 was at least 6.52 in assay [1] and below 4.00 in assay [2].
The corresponding values for `CC(CC(=O)Nc1sc2c(c1C#N)CCN(C(=O)CCc1ccccn1)C2)c1ccccc1` (racemic) [Example 29, (RS)—N-[3-Cyano-6-(3-pyridin-2-yl-propanoyl)-4,5,6,7-tetrahydro-thieno[2,3-c]pyridin-2-yl]-3-phenyl-butyramide] are 5.70 to 6.52 and below 4.00.
For the compound `Cc1cn(CC(=O)N2CCc3c(sc(NC(=O)CCc4ccccc4)c3C#N)C2)cn1` [Example 41, N-{3-Cyano-6-[2-(4-methyl-imidazol-1-yl)-ethanoyl]-4,5,6,7-tetrahydro-thieno[2,3-c]pyridin-2-yl}-3-phenyl-propionamide], the pIC50 in assay [1] is at least 6.52; in assay [2] it was below 4.00.
As for `Cc1nccn1CC(=O)N1CCc2c(sc(NC(=O)CC(C)c3ccccc3)c2C#N)C1` (racemic) [Example 37, (RS)—N-{3-Cyano-6-[2-(2-methyl-imidazo-1-yl)-ethanoyl]-4,5,6,7-tetrahydro-thieno[2,3-c]pyridin-2-yl}-3-phenyl-butyramide], the pIC50 in assay [1] is at least 6.52; in assay [2], at most 4.40.
